The results in this text go back to ChEMBL document CHEMBL4311950, “Hip To Be Square: Oxetanes as Design Elements To Alter Metabolic Pathways” (J Med Chem, 2019).

A word on the solubility: it is how much of the substance goes into solution per volume. Read a low solubility as a poorly soluble substance. For orientation: logD means the decadic logarithm of the distribution of all forms, ionised or not, between an organic phase and buffer at a given pH. Read a low logD as a more hydrophilic compound. What is called pKa is the pH at which an ionisable group is half protonated. As a reminder, the microsomal CLint is the rate of metabolic loss divided by the concentration. A lower microsomal CLint goes with slow turnover. A word on the hepatocyte CLint: it is the capacity of the preparation to metabolise the compound, expressed as a volume cleared per time. A lower hepatocyte CLint goes with greater metabolic stability.

Values after ≈ are worked out from the molar mass of the structure shown. Where only a bound is given, the exact number is not on record here.

Data set [1] can be described thus: physchem. The following applies: buffer, pH 7.4.
Description: Aqueous solubility of the compound in pH 7.4 HBSS buffer HPLC-MS analysis
Data set [2] is described as follows: physchem. The following applies: octanol/water, pH 7.4.
Description: Octanol-water distribution coefficient, log D of the compound at pH 7.4 by RP-HPLC analysis
Data set [3] in a line: physchem. The following applies: pH 2.3.
Description: Dissociation constant, pKa of compound at pH 2.3 to 10.8 by pressure assisted capillary electrophoresis-MS analysis
Data set [4] in a line: in vitro. Conditions: human, liver microsomes.
Description: Intrinsic clearance in human liver microsomes at 50 uM in presence of NADPH by HPLC-MS analysis
A short description of data set [5]: in vitro. Conditions: human, hepatocytes.
Description: Intrinsic clearance in human hepatocytes assessed per million cells at 50 uM in presence of NADPH by HPLC-MS analysis

In turn, `COc1ccc(CN2CCCC3(COC3)C2)cc1` came in with a solubility in “physchem [1]” of 744 µM (≈ 184 µg/mL). The log distribution coefficient (logD) in the data set “physchem [2]” amounted to 1.5. Moreover, the pKa in “physchem [3]” is 8.08. Besides, the intrinsic clearance (microsomal CLint) at 50 µM in “in vitro [4]” was determined as 28.3 µL/min/mg.
In “physchem [1]”, `COc1cc(CN2CCCC23COC3)ccc1OC1CN(C(=O)c2nnc(-c3ccccc3)o2)C1` showed a solubility of 221 µM (≈ 105 µg/mL). The same compound had a logD in “physchem [2]” of 3.5. The compound also returned a pKa in the data set “physchem [3]” of 6. The hepatocyte CLint at 50 µM in “in vitro [5]” was 25 µL/min/1e6 cells.
For `O=C(NC1C2CC3CC1CC(O)(C3)C2)c1cnc(NC2COC2)nc1C1CCC1` (configuration not stated), the solubility in “physchem [1]” was > 2520 µM. In “physchem [2]”, this compound yielded a logD of 1.6. In addition, the pKa in “physchem [3]” was 2.4. Also, the intrinsic metabolic clearance (microsomal CLint) at 50 µM in “in vitro [4]” is < 3.5 µL/min/mg.
On the same counts, the results for `COc1ccc(CN2CCC3(CC2)COC3)cc1` are 750 µM (≈ 186 µg/mL), 0.8, 8.56 and 20.6 µL/min/mg.
Regarding `COc1ccc(-c2nnc(C(=O)N3CC(Oc4ccc(CN5CC6(COC6)C5)cc4C)C3)o2)cc1`, the concentration in solution in “physchem [1]” (solubility) came to 74 µM (≈ 35.3 µg/mL). In the data set “physchem [2]”, this compound gave a pH-dependent lipophilicity (logD) of 2.5. Also, the pKa in the data set “physchem [3]” amounted to 8.4. The compound also returned a hepatocyte CLint at 50 µM in “in vitro [5]” of 18.6 µL/min/1e6 cells.
In turn, `COc1ccc(-c2nnc(C(=O)N3CC(Oc4ccc(CN5CC6(CCOC6)C5)cc4)C3)o2)cc1` registered a solubility in “physchem [1]” of 82 µM (≈ 39.1 µg/mL). Besides, the hepatocyte CLint at 50 µM in “in vitro [5]” is 10.8 µL/min/1e6 cells.
In the case of `O=C(NC1C2CC3CC1CC(O)(C3)C2)c1cnc(NC2COC2)nc1C1CCCC1` (configuration not stated), the solubility in “physchem [1]” is > 1820 µM. This compound also yielded a logD in “physchem [2]” of 2.1. Further, the pKa in “physchem [3]” worked out at 2.6. In the data set “in vitro [4]”, the intrinsic clearance (microsomal CLint) at 50 µM is < 2 µL/min/mg.
As to `COc1ccc(-c2nnc(C(=O)N3CC(Oc4ccc(CN5CCCC56COC6)cc4)C3)o2)cc1`, the concentration in solution in “physchem [1]” (solubility) came to 3 µM (≈ 1.43 µg/mL). The compound further yielded a pKa in “physchem [3]” of 6. This compound also came in with a hepatocyte CLint at 50 µM in the data set “in vitro [5]” of 48.7 µL/min/1e6 cells.
In the data set “physchem [1]”, `O=C(NC1C2CC3CC1CC(O)(C3)C2)c1cnc(OC2COC2)nc1C1CCC1` (configuration not stated) had a solubility of 818 µM (≈ 327 µg/mL). In the data set “physchem [2]”, this compound had a logD of 1.6. The microsomal CLint at 50 µM in the data set “in vitro [4]” amounted to 6.1 µL/min/mg.
`COc1cc(OC2CN(C(=O)c3nnc(-c4ccc(C(F)F)cc4)o3)C2)ccc1CN1CC2(COC2)C1` returned a solubility in “physchem [1]” of 87 µM (≈ 44.6 µg/mL). In addition, the pH-dependent lipophilicity (logD) in “physchem [2]” turned out to be 2.1. In the data set “physchem [3]”, this compound returned a pKa of 8.2. The hepatocyte CLint at 50 µM in the data set “in vitro [5]” came out at 19.4 µL/min/1e6 cells.
`Cc1cc(OC2CN(C(=O)c3nnc(-c4ccccc4)o3)C2)ccc1CN1CCCC2(COC2)C1` showed a logD in the data set “physchem [2]” of 3.6. The same compound returned a pKa in “physchem [3]” of 7.6.
As for `O=C(c1nnc(-c2ccccc2)o1)N1CC(Oc2ccc(CN3CC4(COC4)C3)cc2Cl)C1`, in “physchem [1]”, the solubility was found to be 76 µM (≈ 35.5 µg/mL). The compound further had a logD in “physchem [2]” of 2.7. This compound came in with a pKa in the data set “physchem [3]” of 7.5. The compound also showed a hepatocyte CLint at 50 µM in the data set “in vitro [5]” of 12.4 µL/min/1e6 cells.
`COc1cc(OC2CN(C(=O)c3nnc(-c4ccc(C(F)F)cc4)o3)C2)ccc1CN1CCCC12COC2` registered a solubility in the data set “physchem [1]” of 43 µM (≈ 22.6 µg/mL). In the data set “physchem [2]”, this compound had a pH-dependent lipophilicity (logD) of 4.2. This compound registered a pKa in “physchem [3]” of 7. The same compound came in with a hepatocyte CLint at 50 µM in “in vitro [5]” of 42.7 µL/min/1e6 cells.
`O=C(NC1C2CC3CC1CC(O)(C3)C2)c1cnc(OC2COC2)nc1C1CCCC1` (configuration not stated) yielded a solubility in “physchem [1]” of 476 µM (≈ 197 µg/mL). The compound also registered a pH-dependent lipophilicity (logD) in “physchem [2]” of 1.9. The same compound came in with a pKa in the data set “physchem [3]” of 2.6. The compound also yielded a microsomal CLint at 50 µM in “in vitro [4]” of 2.8 µL/min/mg.
On to `O=C(c1nnc(-c2ccccc2)o1)N1CC(Oc2ccc(CN3CC4(COC4)C3)c(Cl)c2)C1`, for which the solubility in the data set “physchem [1]” was found to be 90 µM (≈ 42 µg/mL). The pH-dependent lipophilicity (logD) in “physchem [2]” is 3. The pKa in “physchem [3]” came out at 7.7. For the same compound, the hepatocyte CLint at 50 µM in “in vitro [5]” was 32.7 µL/min/1e6 cells.
As to `O=C(c1nnc(-c2ccc(OC(F)F)cc2)o1)N1CC(Oc2ccc(CN3CC4(COC4)C3)cc2)C1`, in “physchem [1]”, the solubility turned out to be 51 µM (≈ 25.4 µg/mL). The pH-dependent lipophilicity (logD) in “physchem [2]” was determined as 2.5. In “in vitro [5]”, this compound showed an intrinsic clearance (hepatocyte CLint) at 50 µM of 27.2 µL/min/1e6 cells.
With `COc1ccc(-c2nnc(C(=O)N3CC(Oc4ccc(CNCC5(C)COC5)cc4)C3)o2)cc1`, the concentration in solution in the data set “physchem [1]” (solubility) came to 61 µM (≈ 28.3 µg/mL). The logD in “physchem [2]” came out at 2. For the same compound, the pKa in “physchem [3]” was found to be 8.2. This compound showed an intrinsic clearance (microsomal CLint) at 50 µM in the data set “in vitro [4]” of 103 µL/min/mg.
On the same counts, the results for `COc1ccc(CN2CC3(COC3)C2)cc1` are 364 µM (≈ 79.8 µg/mL), 0.4, 8.25 and < 3 µL/min/mg.
The matching figures for `O=C(NC1C2CC3CC1CC(O)(C3)C2)c1cnc(NC2COC2)nc1C1CC1` (configuration not stated): 580 µM (≈ 223 µg/mL), 1.1, 2.8 and < 2 µL/min/mg.
In the data set “physchem [1]”, `O=C(c1nnc(-c2ccc(F)cc2)o1)N1CC(Oc2ccc(CN3CC4(COC4)C3)cc2)C1` showed a solubility of 735 µM (≈ 331 µg/mL). In “physchem [2]”, this compound showed a logD of 2. This compound also displayed a pKa in “physchem [3]” of 8.2. This compound showed a hepatocyte CLint at 50 µM in the data set “in vitro [5]” of 1.9 µL/min/1e6 cells.
In “physchem [1]”, `COc1ccc(-c2nnc(C(=O)N3CC(Oc4ccc(COCC5(C)COC5)cc4)C3)o2)cc1` registered a solubility of 3 µM (≈ 1.4 µg/mL). For the same compound, in “in vitro [4]”, the microsomal CLint at 50 µM was > 300 µL/min/mg.
`COc1ccc(-c2nnc(C(=O)N3CC(Oc4ccc(CN5CC6(CCCO6)C5)cc4)C3)o2)cc1`: the concentration in solution in “physchem [1]” (solubility) was 495 µM (≈ 236 µg/mL). Moreover, in “in vitro [5]”, the hepatocyte CLint at 50 µM was determined as 10.4 µL/min/1e6 cells.
`O=C(c1nnc(-c2ccccc2)o1)N1CC(Oc2ccc(CN3CC4(COC4)C3)cc2)C1`: in the data set “physchem [1]”, the solubility is 89 µM (≈ 38.5 µg/mL). In “physchem [3]”, this compound yielded a pKa of 8. Also, in “in vitro [5]”, the intrinsic clearance (hepatocyte CLint) at 50 µM turned out to be 6.1 µL/min/1e6 cells.
`COc1ccc(-c2nnc(C(=O)N3CC(Oc4ccc(CN5CC6CC(C5)O6)cc4)C3)o2)cc1` came in with a solubility in the data set “physchem [1]” of 3 µM (≈ 1.39 µg/mL). The log distribution coefficient (logD) in “physchem [2]” came out at 2.9. This compound came in with a pKa in “physchem [3]” of 7.3. Besides, the hepatocyte CLint at 50 µM in the data set “in vitro [5]” worked out at 38 µL/min/1e6 cells.
On the same counts, the results for `COc1cc(CN2CCCC23COC3)ccc1OC1CN(C(=O)c2nnc(-c3ccc(C(F)F)cc3)o2)C1` are 39 µM (≈ 20.5 µg/mL), 3.8, 6.1 and 38.5 µL/min/1e6 cells.
With `COc1ccc(CN2CCCC23COC3)cc1`, in “physchem [1]”, the concentration in solution (solubility) was 610 µM (≈ 142 µg/mL). The compound also had a logD in “physchem [2]” of 1.8. Further, the microsomal CLint at 50 µM in “in vitro [4]” came out at 8.1 µL/min/mg.
In turn, `COc1ccc(-c2nnc(C(=O)N3CC(Oc4ccc(CN(C)CC5(C)COC5)c(C)c4)C3)o2)cc1` came in with a log distribution coefficient (logD) in the data set “physchem [2]” of 3. For the same compound, the pKa in “physchem [3]” was 8.
Consider `O=C(c1nnc(-c2ccc(C(F)F)cc2)o1)N1CC(Oc2ccc(CN3CC4(COC4)C3)cc2)C1`, for which the solubility in the data set “physchem [1]” came to 86 µM (≈ 41.5 µg/mL). The compound also returned a logD in the data set “physchem [2]” of 2.4. Moreover, the pKa in the data set “physchem [3]” was determined as 8.5. Further, the intrinsic clearance (hepatocyte CLint) at 50 µM in the data set “in vitro [5]” was found to be 5.3 µL/min/1e6 cells.
The matching figures for `COc1cc(CN2CC3(COC3)C2)ccc1OC1CN(C(=O)c2nnc(-c3ccc(C(F)F)cc3)o2)C1`: 82 µM (≈ 42 µg/mL), 2.2, 8.9 and 19.5 µL/min/1e6 cells.
On the same counts, the results for `COc1cc(OC2CN(C(=O)c3nnc(-c4ccccc4)o3)C2)ccc1CN1CCCC12COC2` are 60 µM (≈ 28.6 µg/mL), 3.8, 8 and 27.5 µL/min/1e6 cells.
In the case of `O=C(NC1C2CC3CC1CC(O)(C3)C2)c1cnc(OC2COC2)nc1C1CC1` (configuration not stated), in the data set “physchem [1]”, the solubility was found to be 867 µM (≈ 334 µg/mL). In “physchem [2]”, this compound returned a log distribution coefficient (logD) of 2. Also, the microsomal CLint at 50 µM in “in vitro [4]” was < 2 µL/min/mg.
In turn, `COc1ccc(-c2nnc(C(=O)N3CC(Oc4ccc(CN5CC6(COC6)C5)c(C)c4)C3)o2)cc1` gave a solubility in “physchem [1]” of 73 µM (≈ 34.8 µg/mL). Also, in the data set “physchem [2]”, the pH-dependent lipophilicity (logD) turned out to be 2.6. In “physchem [3]”, the pKa is 8.2. In “in vitro [5]”, this compound came in with a hepatocyte CLint at 50 µM of 17 µL/min/1e6 cells.
